# Measurements: patent publication US11040981B2, “Pyrrolotriazine compounds and methods of inhibiting TAM kinases” (Syros Pharmaceuticals, Inc., priority 2017, dated 2021)
# Columns and labels:
# MERTK = biological target: T1, MERTK (Homo sapiens, UniProt Q12866); assay: TR-FRET kinase activity assay, MERTK; type: biochemical; conditions: for IC50: TR-FRET activity assay, ATP at Km, 60 minutes, read-out: Mer IC50
# T1 sequence (Q12866 21-999): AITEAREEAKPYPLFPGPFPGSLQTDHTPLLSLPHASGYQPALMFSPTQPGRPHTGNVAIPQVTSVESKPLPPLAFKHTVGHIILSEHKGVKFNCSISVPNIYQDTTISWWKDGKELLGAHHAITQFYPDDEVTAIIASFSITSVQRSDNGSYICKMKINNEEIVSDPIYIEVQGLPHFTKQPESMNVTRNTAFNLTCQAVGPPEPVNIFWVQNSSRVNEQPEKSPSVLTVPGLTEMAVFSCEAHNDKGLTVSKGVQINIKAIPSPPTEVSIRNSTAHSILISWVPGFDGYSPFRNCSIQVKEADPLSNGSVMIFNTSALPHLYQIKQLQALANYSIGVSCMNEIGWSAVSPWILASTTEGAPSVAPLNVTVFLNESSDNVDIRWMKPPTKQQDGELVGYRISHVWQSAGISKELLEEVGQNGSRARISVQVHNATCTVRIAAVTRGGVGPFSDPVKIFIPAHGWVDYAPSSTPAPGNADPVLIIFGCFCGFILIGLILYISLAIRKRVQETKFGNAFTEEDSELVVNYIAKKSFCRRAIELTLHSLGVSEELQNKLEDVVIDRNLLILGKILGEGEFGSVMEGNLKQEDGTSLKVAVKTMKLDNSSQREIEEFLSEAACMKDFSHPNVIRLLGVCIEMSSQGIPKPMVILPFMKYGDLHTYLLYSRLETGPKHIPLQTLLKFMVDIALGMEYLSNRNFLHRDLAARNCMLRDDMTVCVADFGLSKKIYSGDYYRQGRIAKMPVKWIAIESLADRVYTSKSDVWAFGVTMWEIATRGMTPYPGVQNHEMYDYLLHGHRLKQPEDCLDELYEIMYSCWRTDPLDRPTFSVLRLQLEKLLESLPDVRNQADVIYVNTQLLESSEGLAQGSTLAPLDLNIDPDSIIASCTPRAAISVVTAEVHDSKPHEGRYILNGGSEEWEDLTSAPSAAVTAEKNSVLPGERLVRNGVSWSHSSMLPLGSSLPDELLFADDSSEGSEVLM
# Method in brief: (§1)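 Enzyme + labelled peptide + cpd premixed; ATP at per-enzyme Km starts rxn. 60 min RT, HEPES pH 7.5/MgCl2/EGTA/Brij 35/DTT buffer. Stop 12.5 mM EDTA, Eu phospho-Ab 30 min dark, TR-FRET read → IC50.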
# FLT3 = biological target: T2, FLT3 (Homo sapiens, UniProt P36888); assay: TR-FRET kinase activity assay, FLT3; type: biochemical; conditions: ATP at Km, 60 minutes
# T2 sequence (P36888 27-993): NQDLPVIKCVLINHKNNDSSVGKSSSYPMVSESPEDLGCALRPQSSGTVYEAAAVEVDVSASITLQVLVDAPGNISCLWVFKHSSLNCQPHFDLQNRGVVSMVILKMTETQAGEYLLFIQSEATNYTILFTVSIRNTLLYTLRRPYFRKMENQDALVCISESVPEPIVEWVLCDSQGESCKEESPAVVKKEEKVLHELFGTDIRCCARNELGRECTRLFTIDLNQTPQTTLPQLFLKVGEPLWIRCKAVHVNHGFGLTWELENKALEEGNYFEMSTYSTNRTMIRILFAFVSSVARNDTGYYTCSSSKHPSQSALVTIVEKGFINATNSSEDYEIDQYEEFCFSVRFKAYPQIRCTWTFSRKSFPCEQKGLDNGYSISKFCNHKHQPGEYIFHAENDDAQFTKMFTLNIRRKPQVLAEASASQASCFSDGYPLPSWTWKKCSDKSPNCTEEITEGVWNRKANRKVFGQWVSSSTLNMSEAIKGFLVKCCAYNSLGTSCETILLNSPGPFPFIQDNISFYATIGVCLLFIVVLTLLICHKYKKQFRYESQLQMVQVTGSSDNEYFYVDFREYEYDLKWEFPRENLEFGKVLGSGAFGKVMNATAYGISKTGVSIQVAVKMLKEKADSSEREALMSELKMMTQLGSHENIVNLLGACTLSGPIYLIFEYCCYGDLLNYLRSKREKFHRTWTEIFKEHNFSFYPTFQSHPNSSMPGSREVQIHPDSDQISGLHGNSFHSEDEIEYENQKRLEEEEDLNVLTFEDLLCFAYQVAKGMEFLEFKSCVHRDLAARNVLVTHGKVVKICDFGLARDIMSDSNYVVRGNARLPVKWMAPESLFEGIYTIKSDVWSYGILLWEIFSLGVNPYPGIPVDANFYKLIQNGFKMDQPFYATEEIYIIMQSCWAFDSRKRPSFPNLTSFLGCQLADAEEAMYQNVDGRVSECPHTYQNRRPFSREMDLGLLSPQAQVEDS
# Method in brief: as §1
# [1] = ratio calculated as FLT3 IC50/Mer IC50
# [2] = ratio of Mer to FLT3: FLT3 IC50/Mer IC50
Compound,IC50 (MERTK) [nM],FLT3/Mer ratio (FLT3 IC50/Mer IC50) (MERTK; [1]),IC50 (FLT3) [nM],FLT3/Mer ratio (FLT3 IC50/Mer IC50) (MERTK; [2])
CC[C@]1(O)CC[C@H](c2cc(-c3ccnc(N4CCOCC4)c3)c3cnc(N[C@@H](C)COC)nn32)CC1 [Compound 568],≤ 100,+++ (“+++” represents a ratio of >100),100 to 1000,–
COC[C@H](C)Nc1ncc2c(-c3cnn(C(C)(C)C(=O)N4CCOC(C(C)(C)O)C4)c3)cc([C@H]3CC[C@H](O)CC3)n2n1 (stereo partly drawn) [Compound 586],≤ 100,+++ (“+++” represents a ratio of >100),1000 to 10000,–
COCC(C)Nc1ncc2c(-c3ccc4[nH]cnc4c3)cc(C3CCC(O)CC3)n2n1 (stereo not drawn) [Compound 553],≤ 100,+++ (“+++” represents a ratio of >100),100 to 1000,–
COCC(C)Nc1ncc2c(-c3ccc4cc[nH]c4c3)cc(C3CCC(O)CC3)n2n1 (stereo not drawn) [Compound 538],≤ 100,+++ (“+++” represents a ratio of >100),1000 to 10000,–
COC[C@H](C)Nc1ncc2c(-c3ccnc(N4CCOCC4)c3)cc([C@H]3CC[C@](C)(O)CC3)n2n1 [Compound 549],≤ 100,+++ (“+++” represents a ratio of >100),100 to 1000,–
COCC(C)Nc1ncc2c(-c3cccc(-c4nnc(C)o4)c3)cc(C3CCC(O)CC3)n2n1 (stereo not drawn) [Compound 551],≤ 100,+++ (“+++” represents a ratio of >100),1000 to 10000,–
COCC(C)Nc1ncc2c(-c3ccc4ocnc4c3)cc(C3CCC(O)CC3)n2n1 (stereo not drawn) [Compound 550],≤ 100,+++ (“+++” represents a ratio of >100),100 to 1000,–
COC[C@H](C)Nc1ncc2c(-c3cnn(C(C)(C)C(=O)N4CC[C@H](O)C4)c3)cc([C@H]3CC[C@H](O)CC3)n2n1 [Compound 554],≤ 100,+++ (“+++” represents a ratio of >100),1000 to 10000,–
COC[C@H](C)Nc1ncc2c(-c3cnn(C(C)(C)C(=O)N4CCOCC4)c3)cc([C@H]3CC[C@@H](O)CC3)n2n1 [Compound 547],≤ 100,+++ (“+++” represents a ratio of >100),100 to 1000,–
COC[C@H](C)Nc1ncc2c(-c3cnn(C4COC4)c3)cc(C3CCC(=O)NC3)n2n1 (stereo partly drawn) [Compound 526],≤ 100,++ (“++” represents a ratio of between 10 and 100),1000 to 10000,–
C[C@@H](CC(F)(F)F)Nc1ncc2c(-c3ccc([S@@](C)(=N)=O)nc3)cc([C@H]3CC[C@H](O)CC3)n2n1 [Compound 541],≤ 100,++ (“++” represents a ratio of between 10 and 100),≤ 100,–
COCC(C)Nc1ncc2c(-c3cccc(N4CCOCC4)c3)cc(C3CCC(O)CC3)n2n1 (stereo not drawn) [Compound 562],≤ 100,+++ (“+++” represents a ratio of >100),≤ 100,–
COC[C@H](C)Nc1ncc2c(-c3cnn(C(C)(C)c4nnc(C5CC5)o4)c3)cc([C@H]3CC[C@H](O)CC3)n2n1 [Compound 563],≤ 100,+++ (“+++” represents a ratio of >100),100 to 1000,–
CCOCC(C)Nc1ncc2c(-c3ccc(CN4CCN(C)CC4)cc3)cc(C3CCC(O)CC3)n2n1 (stereo not drawn) [Compound 138],≤ 100,–,100 to 1000,++ (“++” represents a ratio of between 10 and 100)

# The next lines start with results.
IC50 (MERTK) [nM],FLT3/Mer ratio (FLT3 IC50/Mer IC50) (MERTK; [1]),IC50 (FLT3) [nM],Compound,FLT3/Mer ratio (FLT3 IC50/Mer IC50) (MERTK; [2])
≤ 100,+++ (“+++” represents a ratio of >100),1000 to 10000,COC[C@H](C)Nc1ncc2c([C@H]3CC[C@H](C(C)=O)CC3)cc([C@H]3CC[C@H](O)CC3)n2n1 [Compound 576],–
≤ 100,+++ (“+++” represents a ratio of >100),1000 to 10000,Cc1nnc(C(C)(C)n2cc(-c3cc([C@H]4CC[C@H](O)CC4)n4nc(N[C@@H](C)COC(F)F)ncc34)cn2)o1 [Compound 517],–
≤ 100,+++ (“+++” represents a ratio of >100),> 10000,COC[C@H](C)Nc1ncc2c(-c3cncc([S@@](C)(=N)=O)c3)cc([C@H]3CC[C@H](O)CC3)n2n1 [Compound 573],–
≤ 100,–,100 to 1000,COC[C@H](C)Nc1ncc2c(C3=CCOCC3)cc([C@H]3CC[C@H](O)CC3)n2n1 [Compound 141],+++ (“+++” represents a ratio of >100)
≤ 100,+++ (“+++” represents a ratio of >100),100 to 1000,COC[C@H](C)Nc1ncc2c(-c3ccnc(N4CCOCC4)c3)cc([C@H]3CC[C@@H](O)CC3)n2n1 [Compound 546],–
≤ 100,+++ (“+++” represents a ratio of >100),1000 to 10000,COC[C@H](C)Nc1ncc2c([C@H]3CC[C@H](C(=O)N4CC5(COC5)C4)CC3)cc([C@H]3CC[C@H](O)CC3)n2n1 [Compound 578],–
≤ 100,+++ (“+++” represents a ratio of >100),1000 to 10000,C[C@H](Nc1ncc2c(-c3cnn(C4COC4)c3)cc([C@H]3CC[C@H](O)CC3)n2n1)C(F)(F)F [Compound 510],–
≤ 100,+++ (“+++” represents a ratio of >100),100 to 1000,COC[C@H](C)Nc1ncc2c(-c3cnn(C4COC4)c3)cc([C@@H]3CC[C@@H](O)[C@H](C)C3)n2n1 [Compound 589],–
≤ 100,+++ (“+++” represents a ratio of >100),100 to 1000,C[C@@H](Nc1ncc2c(-c3cnn(C4COC4)c3)cc([C@H]3CC[C@H](O)CC3)n2n1)C(F)(F)F [Compound 527],–
≤ 100,+++ (“+++” represents a ratio of >100),100 to 1000,COC[C@H](C)Nc1ncc2c(-c3cnn(C(C)(C)C(=O)N4CCOCC4)c3)cc([C@H]3CC[C@](C)(O)CC3)n2n1 [Compound 560],–
≤ 100,+++ (“+++” represents a ratio of >100),1000 to 10000,CC(Nc1ncc2c(-c3cnn(C4COC4)c3)cc(C3CCC(O)CC3)n2n1)c1cccnc1 (racemic) [Compound 536],–
≤ 100,+++ (“+++” represents a ratio of >100),100 to 1000,COCC(C)Nc1ncc2c(-c3ccnc(N4CCOC(C(C)(C)O)C4)c3)cc(C3CCC(O)CC3)n2n1 (stereo not drawn) [Compound 559],–
≤ 100,+++ (“+++” represents a ratio of >100),100 to 1000,CC(C)(O)C1CN(c2cc(-c3cc([C@H]4CC[C@H](O)CC4)n4nc(NCCOC(F)F)ncc34)ccn2)CCO1 (stereo partly drawn) [Compound 557],–
